From patent US20230094076A1, “COMBINATION THERAPY” (GlaxoSmithKline Intellectual Property Development Limited, priority 2016, published 2023)
Read-outs that look alike come from different tables or passages of the source.

Tests used:
[1] = tested on: Toledo (human DLBCL) xenograft; conditions: for Body weight Difference (vs. vehicle) / Regression: Toledo (DLBCL), Day 28
[2] = tested on: MV-4-11; conditions: MV-4-11, AML subtype M5, 6-day
Experimental: (§1) The growth of all cell lines was evaluated over time across a wide range of seeding densities to identify conditions that permitted proliferation throughout the entire 6-day assay. Cells were plated at the optimal seeding density and after overnight incubation, a 20-point 2-fold titration of compound was added and plates were incubated for 6 days. A replicate plate of cells was harvested at the time of compound addition to quantify the starting number of cells (T0). Values obtained after the 6 day treatment were expressed as a function of the T0 value and plotted against compound concentration. The T0 value was normalized to 100% and represents the number of cells at the time of compound addition. The data were fit with a 4 parameter equation to generate a concentration response curve and the growth IC50 (gIC50) was determined. The gIC50 is the midpoint of the ‘growth window’, the difference between the number of cells at the time of compound addition (To) and the number of cells after 6 days (DMSO control). The growth-death assay can be used to quantify the net population change, clearly defining cell death (cytotoxicity) as fewer cells compared to the number at the time of compound addition (T0).

[3] = tested on: KASUMI-; conditions: AML subtype M2, 6-day
Experimental: as §1

[4] = tested on: Kidney cancer cell lines; conditions: percent of cell lines, 10 cell lines
Experimental: as §1

[5] = tested on: Bladder cancer cell lines; conditions: 18 cell lines
Experimental: as §1

[6] = tested on: U2932
Excerpt: (§2) FIG. 18: Propidium iodide FACS analysis of cell cycle in human lymphoma cell lines. […] Data represents the average±SEM of biological replicates, n=2.

[7] = tested on: Toledo
Excerpt: as §2

[8] = tested on: OCI-Ly1
Excerpt: as §2

[9] = tested on: arginine methylation (ADMA, MMA, SDMA) in Toledo cells; assay: Durability of arginine methylation changes after compound washout (western); assay type: cell-based, human; conditions: 0.4 μM for 72 hours, then washout
Experimental: (A) Stability of changes to ADMA. […] (B) Representative western blots of arginine methylation marks. Regions quantified for (A) are denoted by black bars on the side of the gel.
Cells were then washed, cultured in Compound A-free media, samples were collected daily through 120 hours, and arginine methylation levels were examined by western analysis. […] SDMA appeared to continue to increase even after 6 hours of washout. This is consistent with the continued increase observed through 120 hours without any obvious plateau (FIG. 12) coupled with the durable increase in MMA that has not yet returned to baseline after washout. Durability of each modification generally reflected the kinetics of arginine methylation changes brought about by Compound A, with MMA being the most rapid.

[10] = tested on: Toledo (human DLBCL) xenograft; conditions: for Body weight Difference (vs. vehicle): Toledo (DLBCL), Day 25
[11] = tested on: ccRCC cell lines; conditions: only at highest concentration
[12] = target: PRMT8 (Homo sapiens, UniProt Q9NR22); assay: PRMT family radioactive assay; assay type: biochemical
[13] = target: PRMT5/MEP50 (Homo sapiens, UniProt O14744); assay: PRMT family radioactive assay; assay type: biochemical; conditions: 60 minute SAM:Enzyme:Compound A preincubation
[14] = target: PRMT3 (Homo sapiens, UniProt O60678); assay: PRMT family radioactive assay; assay type: biochemical
[15] = target: PRMT9 (Homo sapiens, UniProt Q6P2P2); assay: PRMT family radioactive assay; assay type: biochemical; conditions: 60 minute SAM:Enzyme:Compound A preincubation
[16] = tested on: arginine methylation (ADMA, MMA, SDMA) in Toledo cells; assay: Western analysis of arginine methylation, time course; assay type: cell-based, human; conditions: 0.4 μM
Experimental: (B) Representative western blots of arginine methylation marks. Regions quantified are denoted by black bars on the right of the gel.
As predicted, ADMA methylation decreased while MMA increased upon compound exposure (FIG. 12). […] Given the detection of numerous substrates with varying kinetics, and variability of ADMA levels among DMSO-treated samples, both the full lane and a prominent 45 kDa band were characterized to assess ADMA. Increases in MMA were apparent by 24 hours and near maximal by 48 hours while decreases in the 45 kDa ADMA band required 72-96 hours to achieve maximal effect. Increases in SDMA were apparent after 48 hours of compound exposure and continued to increase through 120 hours, consistent with the potential switch from conversion of MMA to ADMA by Type I PRMTs to SDMA by Type II PRMTs (FIG. 12).

[17] = target: PRMT6 (Homo sapiens, UniProt Q96LA8); assay: PRMT family radioactive assay; assay type: biochemical
[18] = target: PRMT4 (Homo sapiens, UniProt Q86X55); assay: PRMT family radioactive assay; assay type: biochemical
[19] = tested on: human renal cell carcinoma xenografts (ACHN); conditions: for Body weight Difference (vs. vehicle) / Regression: ACHN (ccRCC)
[20] = 60 minute SAM:Enzyme:Compound A preincubation
[21] = 600 QD mg/kg oral, arm terminated at day 31

Sequence of PRMT4 (Q86X55 whole entry): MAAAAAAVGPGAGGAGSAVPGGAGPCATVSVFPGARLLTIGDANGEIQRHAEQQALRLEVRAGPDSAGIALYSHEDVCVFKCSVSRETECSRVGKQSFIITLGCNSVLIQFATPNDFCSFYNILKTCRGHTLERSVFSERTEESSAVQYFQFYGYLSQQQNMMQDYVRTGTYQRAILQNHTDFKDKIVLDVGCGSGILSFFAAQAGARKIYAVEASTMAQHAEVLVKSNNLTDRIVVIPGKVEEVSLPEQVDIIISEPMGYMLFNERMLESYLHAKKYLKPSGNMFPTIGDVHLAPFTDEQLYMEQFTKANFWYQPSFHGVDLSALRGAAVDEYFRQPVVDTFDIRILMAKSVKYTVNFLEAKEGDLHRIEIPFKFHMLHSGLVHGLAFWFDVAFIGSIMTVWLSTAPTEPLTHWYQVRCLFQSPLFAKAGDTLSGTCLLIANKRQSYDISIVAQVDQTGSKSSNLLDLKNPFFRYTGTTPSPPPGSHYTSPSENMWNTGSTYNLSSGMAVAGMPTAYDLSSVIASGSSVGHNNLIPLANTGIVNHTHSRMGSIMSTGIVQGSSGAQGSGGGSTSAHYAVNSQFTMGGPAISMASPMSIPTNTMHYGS
Sequence of PRMT8 (Q9NR22 whole entry): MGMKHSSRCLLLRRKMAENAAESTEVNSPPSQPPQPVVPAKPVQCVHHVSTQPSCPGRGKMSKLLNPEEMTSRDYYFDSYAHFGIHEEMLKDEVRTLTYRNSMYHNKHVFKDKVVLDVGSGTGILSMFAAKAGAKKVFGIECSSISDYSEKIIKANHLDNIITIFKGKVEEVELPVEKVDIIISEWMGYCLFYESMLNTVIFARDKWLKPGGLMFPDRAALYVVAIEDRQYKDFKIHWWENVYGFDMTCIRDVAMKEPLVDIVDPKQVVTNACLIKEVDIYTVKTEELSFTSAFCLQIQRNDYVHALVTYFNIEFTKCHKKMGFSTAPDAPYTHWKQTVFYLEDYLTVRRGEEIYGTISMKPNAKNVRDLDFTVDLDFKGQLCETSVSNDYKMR
Sequence of PRMT3 (O60678 whole entry): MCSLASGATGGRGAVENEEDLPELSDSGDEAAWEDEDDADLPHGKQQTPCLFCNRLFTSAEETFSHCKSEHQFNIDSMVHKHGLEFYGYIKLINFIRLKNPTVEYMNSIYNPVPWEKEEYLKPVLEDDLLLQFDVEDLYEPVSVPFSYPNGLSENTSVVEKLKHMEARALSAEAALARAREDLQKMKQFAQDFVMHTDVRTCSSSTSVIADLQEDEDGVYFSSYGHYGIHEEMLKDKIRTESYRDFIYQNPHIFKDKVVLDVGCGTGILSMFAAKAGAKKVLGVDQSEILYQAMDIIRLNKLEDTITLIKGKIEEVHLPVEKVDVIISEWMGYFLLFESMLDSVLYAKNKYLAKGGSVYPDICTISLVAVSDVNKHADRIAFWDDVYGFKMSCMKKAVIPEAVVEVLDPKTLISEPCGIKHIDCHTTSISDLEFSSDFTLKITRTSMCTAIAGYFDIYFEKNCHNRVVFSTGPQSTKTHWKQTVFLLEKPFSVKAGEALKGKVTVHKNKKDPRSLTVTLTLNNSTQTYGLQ
Sequence of PRMT6 (Q96LA8 whole entry): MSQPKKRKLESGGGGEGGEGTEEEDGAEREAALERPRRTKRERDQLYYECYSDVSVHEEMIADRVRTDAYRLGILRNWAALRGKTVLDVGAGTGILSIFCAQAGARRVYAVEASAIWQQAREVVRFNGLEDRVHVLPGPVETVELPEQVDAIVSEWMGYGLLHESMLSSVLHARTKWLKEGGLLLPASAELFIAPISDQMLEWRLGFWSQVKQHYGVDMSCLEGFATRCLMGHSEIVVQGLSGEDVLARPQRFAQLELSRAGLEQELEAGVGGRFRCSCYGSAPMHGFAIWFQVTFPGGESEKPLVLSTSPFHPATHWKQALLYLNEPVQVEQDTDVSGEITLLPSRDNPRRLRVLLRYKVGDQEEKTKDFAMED
Sequence of PRMT5/MEP50 (O14744 whole entry): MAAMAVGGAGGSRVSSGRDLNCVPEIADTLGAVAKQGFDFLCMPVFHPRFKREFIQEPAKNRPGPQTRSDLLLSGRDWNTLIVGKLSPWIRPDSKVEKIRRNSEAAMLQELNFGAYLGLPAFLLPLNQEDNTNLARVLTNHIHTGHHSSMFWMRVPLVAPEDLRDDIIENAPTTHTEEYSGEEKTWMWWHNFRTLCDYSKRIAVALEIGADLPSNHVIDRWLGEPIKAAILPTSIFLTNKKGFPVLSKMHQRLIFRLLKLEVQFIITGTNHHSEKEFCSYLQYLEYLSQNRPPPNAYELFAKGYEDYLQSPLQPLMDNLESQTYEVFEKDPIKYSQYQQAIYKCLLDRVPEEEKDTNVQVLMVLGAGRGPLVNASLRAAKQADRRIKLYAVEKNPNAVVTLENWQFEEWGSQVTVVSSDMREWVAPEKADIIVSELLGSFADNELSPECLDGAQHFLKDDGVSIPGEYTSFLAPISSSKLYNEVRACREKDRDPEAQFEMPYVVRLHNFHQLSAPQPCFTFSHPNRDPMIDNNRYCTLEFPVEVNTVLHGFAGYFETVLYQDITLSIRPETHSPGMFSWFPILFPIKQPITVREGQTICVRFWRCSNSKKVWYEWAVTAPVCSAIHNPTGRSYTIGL
Sequence of PRMT5/MEP50 (Q9BQA1 whole entry partner): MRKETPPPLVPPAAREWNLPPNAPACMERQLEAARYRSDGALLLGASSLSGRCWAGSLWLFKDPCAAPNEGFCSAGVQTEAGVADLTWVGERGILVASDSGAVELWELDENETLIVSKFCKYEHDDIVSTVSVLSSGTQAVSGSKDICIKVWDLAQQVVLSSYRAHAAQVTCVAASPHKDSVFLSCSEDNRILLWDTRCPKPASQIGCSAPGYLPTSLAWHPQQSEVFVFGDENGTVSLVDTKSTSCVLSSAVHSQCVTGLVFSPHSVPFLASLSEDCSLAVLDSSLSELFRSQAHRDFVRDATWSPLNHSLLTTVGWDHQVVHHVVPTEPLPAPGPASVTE
Sequence of PRMT9 (Q6P2P2 whole entry): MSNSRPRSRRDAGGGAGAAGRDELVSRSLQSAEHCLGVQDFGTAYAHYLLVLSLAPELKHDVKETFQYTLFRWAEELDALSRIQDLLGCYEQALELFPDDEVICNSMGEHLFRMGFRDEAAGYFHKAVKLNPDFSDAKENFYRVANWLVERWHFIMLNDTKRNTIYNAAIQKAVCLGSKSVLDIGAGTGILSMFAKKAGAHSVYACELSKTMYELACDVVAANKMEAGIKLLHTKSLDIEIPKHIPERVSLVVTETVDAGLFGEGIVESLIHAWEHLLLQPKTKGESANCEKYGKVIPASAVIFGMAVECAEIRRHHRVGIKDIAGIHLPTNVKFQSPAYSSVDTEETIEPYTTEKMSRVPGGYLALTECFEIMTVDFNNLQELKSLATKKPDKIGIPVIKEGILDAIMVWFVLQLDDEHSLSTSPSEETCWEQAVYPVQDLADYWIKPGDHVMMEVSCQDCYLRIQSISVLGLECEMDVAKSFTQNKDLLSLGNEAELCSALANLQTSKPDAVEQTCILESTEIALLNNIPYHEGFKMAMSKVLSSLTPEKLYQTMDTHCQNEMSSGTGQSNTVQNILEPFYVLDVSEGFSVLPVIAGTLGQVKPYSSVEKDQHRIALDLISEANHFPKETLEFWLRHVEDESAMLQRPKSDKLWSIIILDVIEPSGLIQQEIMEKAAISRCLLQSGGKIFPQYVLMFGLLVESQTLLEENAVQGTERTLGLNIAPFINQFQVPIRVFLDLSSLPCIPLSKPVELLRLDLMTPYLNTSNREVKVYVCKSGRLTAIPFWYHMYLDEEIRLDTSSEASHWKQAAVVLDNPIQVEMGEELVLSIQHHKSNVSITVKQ

CCOCC1(COCC)CCC(c2n[nH]cc2CN(C)CCNC)CC1 [Compound A]
Body weight Difference (vs. vehicle) ([1]; 150 QD mg/kg oral): −4%
Body weight Difference (vs. vehicle) ([1]; 300 QD mg/kg oral): −3%
Regression ([1]; 300 QD mg/kg oral): 37%
Body weight Difference (vs. vehicle) ([1]; 450 QD mg/kg oral): −8%
Regression ([1]; 450 QD mg/kg oral): 58%
Body weight Difference (vs. vehicle) ([1]; 600 QD mg/kg oral): −7%
Regression ([1]; 600 QD mg/kg oral): 62%
doses at which regressions were observed ([1]; Toledo xenograft, oral daily, 28 days): ≥ 300 mg/kg
body weight loss ([1]; any dose group, 150-600 mg/kg daily): no significant body weight loss
gIC100 [2]: 14.55 ± 4.27 µM
Ymin − T0 ([2]; negative = cell death): 565.6
gIC100 [3]: 18.88 ± 10.55 µM
Ymin − T0 ([3]; negative = cell death): −17.7
% Cytotoxic [4]: 0%
% gIC100 < 2 [4]: 0%
Median gIC100 ([5]; 6-day proliferation): 29.33 µM
% Cytotoxic ([5]; percent of cell lines): 0%
% gIC100 < 2 ([5]; percent of cell lines): 0%
concentration giving accumulation of cells in sub-G1 [6]: 10 µM
concentration giving accumulation of cells in sub-G1 ([7]; after 3 days): ≥ 1000 nM
concentration giving increase in sub-G1 population ([7]; by day 7): ≥ 100 nM
concentration giving accumulation of cells in sub-G1 [8]: 10 µM
time for ADMA to return to baseline after washout [9]: ≤ 24 h
time for MMA to return to baseline after washout [9]: ≤ 24 h
time for SDMA to return to baseline after washout [9]: ≤ 96 h
Body weight Difference (vs. vehicle) ([10]; 37.5 QD mg/kg oral): −5%
Body weight Difference (vs. vehicle) ([10]; 75 BID mg/kg oral): −4%
Body weight Difference (vs. vehicle) ([10]; 75 QD mg/kg oral): −5%
Body weight Difference (vs. vehicle) ([10]; 150 QD mg/kg oral): −7%
body weight loss ([10]; any dose group, 37.5-150 mg/kg QD or 75 mg/kg BID): No significant body weight loss
concentration at which caspase cleavage occurred [11]: 30 µM
inhibition of activity [12, 20]: inhibited the activity
time dependence of inhibition ([12]; increasing preincubation times): time dependent inhibitor
inhibition of activity [13]: failed to inhibit
inhibition of activity [14, 20]: inhibited the activity
time dependence of inhibition ([14]; increasing preincubation times): no time dependent behavior
inhibition of activity [15]: failed to inhibit
time to maximal decrease of 45 kDa ADMA band [16]: 72 to 96 h
time to near maximal increase in MMA [16]: ≤ 48 h
change in ADMA methylation ([16]; up to 120 hours): decreased
change in MMA ([16]; up to 120 hours): increased
change in SDMA ([16]; up to 120 hours): increase
inhibition of activity [17, 20]: inhibited the activity
time dependence of inhibition ([17]; increasing preincubation times): time dependent inhibitor
inhibition of activity [18, 20]: inhibited the activity
time dependence of inhibition ([18]; increasing preincubation times): time dependent inhibitor
body weight loss ([19]; 600 mg/kg daily): Significant body weight loss
Body weight Difference (vs. vehicle) ([19]; 150 QD mg/kg oral, Day 59): −3%
Body weight Difference (vs. vehicle) ([19]; 300 QD mg/kg oral, Day 59): −4%
Regression ([19]; 300 QD mg/kg oral, Day 59): 2%
Body weight Difference (vs. vehicle) ([19]; 450 QD mg/kg oral, Day 59): −7%
Regression ([19]; 450 QD mg/kg oral, Day 59): 15%
Body weight Difference (vs. vehicle) [19, 21]: −17%
Regression [19, 21]: 6%
doses at which regressions were observed ([19]; ACHN xenograft, oral daily): ≥ 300 mg/kg
